# Source: patent publication US9750727B2 (priority 2010, dated 2017)
# Where two headings read alike, the source gives them in different places.
# Assays:
# [1] = test system: M. bovis bovinus 8; format: in vivo, mice
# [2] = test system: M. bovis bovinus 8; format: in vivo, mice; remark: listed apart in the source
# [3] = test system: M. bovis bovinus 8; format: in vivo, mice; conditions: combination of the new treatment with the TB drug
# [4] = test system: M. bovis bovinus 8; format: in vivo, rabbits; conditions: for Body weight ITE (%): 15 mg/kg
# [5] = in vivo; cited from earlier work
# [6] = test system: M. bovis bovinus 8; format: cell-based
# [7] = test system: M. tuberculosis H37Rv; experiment: Double serial dilution, growth of drug-sensitive test strain; format: cell-based; design: key to Degree of mycobacterial growth: primary inhibition of mycobacterial growth (++)
# [8] = test system: M. tuberculosis Erdman; experiment: as above; format: cell-based; design: key to Degree of mycobacterial growth: primary inhibition of mycobacterial growth (++); conditions: for Degree of mycobacterial growth: 10^6 cells/ml
# [9] = test system: M. tuberculosis “Academia”; experiment: as above; format: cell-based; design: key to Degree of mycobacterial growth: primary inhibition of mycobacterial growth (++)
# [10] = test system: gram-positive and gram-negative microorganisms; format: cell-based
# [11] = test system: M. bovis bovinus 8; design: species or system mice; conditions: mouse, in vivo
# [12] = General toxicity; format: in vivo
# [13] = Embryo toxicity, teratogenicity and reproductive function; format: in vivo, animals
# [14] = Allergenic, immunotoxic and mutagenic properties
# [15] = Stability during storage; format: physicochemical
# [16] = test system: Mycobacteria tuberculosis; experiment: Tuberculostatic activity compared with the prototype drug; conditions: in comparison with the prototype drug
# [17] = TB drug combined with the new treatment (20 mg/kg, per os) vs TB drug monotherapy, mice, 42 days
# [18] = TB drug combined with the new treatment (20 mg/kg, per os) vs TB drug monotherapy, mice, 42 days of treatment
# [19] = new treatment in combination with the TB drug, compared to monotherapy with the new treatment alone
# [20] = rabbits, 15 mg/kg per os, vs infection control
# [21] = 3.125 μg/ml in medium, 10^6 cells/ml
smiles,measurement,setting,value
"NCC[C@H](O)C(=O)N[C@@H]1C[C@H](N)[C@@H](O[C@H]2O[C@H](CN)[C@@H](O)[C@H](O)[C@H]2O)[C@H](O)[C@H]1O[C@H]1O[C@H](CO)[C@@H](O)[C@H](N)[C@H]1O [Amycacin, amycacin]",decrease in the coefficient of liver weight,"[1]; mouse, in vivo",34.6%
same,decrease in the index of lung damage,"[1]; mouse, in vivo",1.8%
same,"effect of combination on therapeutic effectiveness, in words","[1]; mouse, in vivo",increased the therapeutic effectiveness
same,increase in therapeutic effectiveness (average of indices of organ damage),"[1]; mouse, in vivo",11.34%
same,Scored sum of area: Breathing lung tissue,"[2]; mouse, in vivo",17.7
same,Scored sum of area: Dense lymphocytic infiltrate,"[2]; mouse, in vivo",3.12
same,Scored sum of area: Desquamative pneumonia,"[2]; mouse, in vivo",2.94
same,Scored sum of area: Polymorpho cellular infiltrate,"[2]; mouse, in vivo",0
same,Scored sum of area: Total lung tissue,"[2]; mouse, in vivo",23.76
same,improvement of the indices of lung damage (morphological),"[2]; mouse, in vivo",2.56%
"CC[C@@H](CO)NCCN[C@@H](CC)CO [Ethambutol, ethambutol]",decrease in CFU levels in the spleen,[1]; [17],33.3%
same,decrease in coefficient of spleen weight,[1]; [17],22.1%
same,decrease in the coefficient of liver weight,[1]; [17],8.9%
same,increase in the index of lung damage,[1]; [17],4.0%
same,increase in the index of lung weight,[1]; [17],3.1%
same,increase in therapeutic effectiveness (average of indices of organ damage),[1]; [18],11.44%
same,"effect of combination on therapeutic effectiveness, in words",[1]; [19],increased the therapeutic effectiveness
same,Scored sum of area: Breathing lung tissue,"[2]; mice, 42 days of treatment",9.78
same,Scored sum of area: Dense lymphocytic infiltrate,"[2]; mice, 42 days of treatment",6.8
same,Scored sum of area: Desquamative pneumonia,"[2]; mice, 42 days of treatment",6.93
same,Scored sum of area: Polymorpho cellular infiltrate,"[2]; mice, 42 days of treatment",0.27
same,Scored sum of area: Total lung tissue,"[2]; mice, 42 days of treatment",23.78
same,"therapeutic effectiveness of the combination, in words",[3],weak therapeutic effectiveness
"NNC(=O)c1ccncc1 [Isoniazid, isonicotinic acid hydrazide]",Body weight % of initial,"[4]; rabbits, 15 mg/kg per os",−6.99%
same,Lethality % of initial number,"[4]; rabbits, 15 mg/kg per os",0%
same,Lethality ITE (%),[4]; [20],+100.0%
same,Body weight ITE (%),[4]; [20],+74.67%
same,Body weight ITE (%),"[4]; rabbits, 15 mg/kg per os, vs infection control, listed as isoniazid",74.67%
same,decrease in CFU levels in the spleen,[1]; [17],25%
same,decrease in the coefficient of liver weight,[1]; [17],3.6%
same,increase in therapeutic effectiveness (average of indices of organ damage),[1]; [18],13.9%
same,"effect of combination on therapeutic effectiveness, in words",[1]; [19],increased the therapeutic effectiveness
same,Scored sum of area: Breathing lung tissue,"[2]; mice, 42 days of treatment",17.5
same,Scored sum of area: Dense lymphocytic infiltrate,"[2]; mice, 42 days of treatment",1.59
same,Scored sum of area: Desquamative pneumonia,"[2]; mice, 42 days of treatment",3.52
same,Scored sum of area: Polymorpho cellular infiltrate,"[2]; mice, 42 days of treatment",0.86
same,Scored sum of area: Total lung tissue,"[2]; mice, 42 days of treatment",23.47
same,LD50,[5],150 mg/kg
CC1COc2c(N3CCN(C)CC3)c(F)cc3c(=O)c(C(=O)O)cn1c23 (centres unmarked) [Ofloxacin],"decrease in indices (of therapeutic effectiveness), range over indices",[1]; [17],4.65% to 11.9
same,increase in the index of lung damage,[1]; [17],2.6%
same,decrease in therapeutic effectiveness,[1]; [18],6.2%
same,Scored sum of area: Breathing lung tissue,"[2]; mice, 42 days of treatment",7.32
same,Scored sum of area: Dense lymphocytic infiltrate,"[2]; mice, 42 days of treatment",6.32
same,Scored sum of area: Desquamative pneumonia,"[2]; mice, 42 days of treatment",10.49
same,Scored sum of area: Polymorpho cellular infiltrate,"[2]; mice, 42 days of treatment",0.04
same,Scored sum of area: Total lung tissue,"[2]; mice, 42 days of treatment",24.17
"CO[C@H]1/C=C/O[C@@]2(C)Oc3c(C)c(O)c4c(c3C2=O)C2=NC3(CCN(CC(C)C)CC3)NC2=C(NC(=O)/C(C)=C\C=C\[C@H](C)[C@H](O)[C@@H](C)[C@@H](O)[C@@H](C)[C@H](OC(C)=O)[C@@H]1C)C4=O [Rifabutin, rifabutin]",decrease in coefficient of lung weight,[1]; [17],12.4%
same,decrease in coefficient of spleen weight,[1]; [17],20.6%
same,increase in the coefficient of liver weight,[1]; [17],0.4%
same,increase in the index of lung damage,[1]; [17],7.4%
same,increase in therapeutic effectiveness (average of indices of organ damage),[1]; [18],7.68%
same,"effect of combination on therapeutic effectiveness, in words",[1]; [19],increased the therapeutic effectiveness
same,Scored sum of area: Breathing lung tissue,"[2]; mice, 42 days of treatment",23.27
same,Scored sum of area: Dense lymphocytic infiltrate,"[2]; mice, 42 days of treatment",0.53
same,Scored sum of area: Desquamative pneumonia,"[2]; mice, 42 days of treatment",0.16
same,Scored sum of area: Polymorpho cellular infiltrate,"[2]; mice, 42 days of treatment",0
same,Scored sum of area: Total lung tissue,"[2]; mice, 42 days of treatment",23.96
"CO[C@H]1/C=C/O[C@@]2(C)Oc3c(C)c(O)c4c(O)c(c(/C=N/N5CCN(C)CC5)c(O)c4c3C2=O)NC(=O)/C(C)=C\C=C\[C@H](C)[C@H](O)[C@@H](C)[C@@H](O)[C@@H](C)[C@H](OC(C)=O)[C@@H]1C [Rifampicin, rifampicin]",decrease in coefficient of lung weight,[1]; [17],18.2%
same,decrease in coefficient of spleen weight,[1]; [17],34.6%
same,decrease in the coefficient of liver weight,[1]; [17],1.6%
same,increase in CFU levels,[1]; [17],6.19%
same,increase in therapeutic effectiveness (average of indices of organ damage),[1]; [18],9.66%
same,Scored sum of area: Breathing lung tissue,"[2]; mice, 42 days of treatment",19.65
same,Scored sum of area: Desquamative pneumonia,"[2]; mice, 42 days of treatment",1.94
same,Scored sum of area: Polymorpho cellular infiltrate,"[2]; mice, 42 days of treatment",0
same,Scored sum of area: Total lung tissue,"[2]; mice, 42 days of treatment",23.96
NC(=S)NN=Cc1ccncc1.[O-][Cl+3]([O-])([O-])O [new treatment],complete inhibition (MIC),[6],1.56 µg/mL
same,concentration of primary inhibition of mycobacterial growth (++),[6],0.19 µg/mL
same,Degree of mycobacterial growth,[7]; [21],++
same,MIC,[7]; M. tuberculosis H37RV,6.25 µg/mL
same,Degree of mycobacterial growth,[8]; 0.19 μg/ml in medium,++
same,Degree of mycobacterial growth,[8]; 0.39 μg/ml in medium,++
same,Degree of mycobacterial growth,[8]; 0.78 μg/ml in medium,++
same,MIC,[8]; M. tuberculosis Erdman,3.125 µg/mL
same,Degree of mycobacterial growth,[9]; [21],++
same,MIC,[9]; M. tuberculosis “Academia”,6.25 µg/mL
same,effect on the growth of gram-positive and gram-negative microorganisms,[10],did not affect the growth
same,Body weight % of initial,[11]; 10 mg/kg,81.9%
same,Lethality %,[11]; 10 mg/kg,62.5%
same,Body weight % of initial,[11]; 20 mg/kg,94.5%
same,Lethality %,[11]; 20 mg/kg,25.0%
same,Body weight % of initial,[11]; 30 mg/kg,92.6%
same,Lethality %,[11]; 30 mg/kg,2.4%
same,Body weight % of initial,"[4]; rabbit, in vivo, 20 mg/kg",−7.13%
same,Lethality % of initial number,"[4]; rabbit, in vivo, 20 mg/kg",0%
same,Lethality ITE (%),"[4]; rabbit, in vivo, 20 mg/kg",+100.0%
same,toxicity relative to the prototype drug (lower),[12]; in comparison with the prototype drug,2.4 times
same,damage to vital organs and systems,[12]; in vivo,neither a significant structural and functional damage to vital organs and systems
same,"toxicity, in words",[12]; in vivo,low toxic agent
same,"dose with teratogenic effect (non life-threatening skeletal malformations, delay in ossification, edema, subcutaneous hemorrhage)","[13]; administered during organogenesis, five times the therapeutic dose",100 mg/kg
same,effect on the reproductive function and offspring development in animals,[13]; continued administration,no effect
same,alterations in placenta development and sex formation,[13]; in vivo,no alterations
same,embryo toxicity,[13]; mainly if administered during organogenesis,moderate embryo toxicity
same,allergenic properties,[14],no
same,immunotoxic properties,[14],no
same,mutagenic properties,[14],no
same,"time for which appearance, physical characteristics and biological properties are stable",[15],3 years
same,tuberculostatic activity relative to the prototype drug (higher),[16],200 times
